Source: patent US20210046071A1, “TETRACYCLIC COMPOUNDS AND THEIR SALTS, COMPOSITIONS, AND METHODS FOR THEIR USE” (Senhwa Biosciences, Inc., priority 2019, published 2021)
Like-named read-outs stand apart in the source and are kept apart here.

Assay: Pharmacokinetic studies in human, Compound I in plasma by LC/MS/MS
Assay type: in vivo
Settings: for Cmax / Tmax / AUC(0-inf) / half-life / Vd / clearance: human, plasma
Procedure: Pharmacokinetic studies and dose escalation studies were conducted in adult patients with metastatic, recurrent, locally, advanced, or unresectable solid malignancy (patients with histologically and/or cytologically confirmed solid malignancy), who received prior anti-cancer treatment(s) until disease progression, at 10 different dose levels of Compound I. Groups 1-7 were administered intravenously on days 1 and 8 of a 4-week cycle at 50, 100, 150, 200, 250, 325, and 475 mg/m^2 (lyophilized formulation), respectively. Groups 8-10 were administered intravenously on days 1,8, and 15 of a 4-week cycle at 325, 475, and 650 mg/m^2 (lyophilized formulation), respectively. Each patient received each dose over 1 hour by IV infusion on days described above.
They lyophilized formulation was reconstituted with 5% glucose in sterile water, or similar biologically acceptable fluid, for IV infusion.
For patients in Groups 1-7, blood samples were typically collected at Day 1 at pre-infusion (t=−1 h), during infusion at about 30 minutes (t=−0.5 h), immediately post infusion (t=0 h), 30 min post-infusion, 1 h post-infusion, 2 h post-infusion, 4 h post-infusion, and 6 h post-infusion, as well as at about 24 h post-infusion, 48 h post-infusion, and 72 h post-infusion. On Day 8, blood samples were typically collected at pre-infusion (t=−1 h), during infusion at about 30 minutes (t=−0.5 h), immediately post infusion (t=0 h), 30 min post-infusion, 1 h post-infusion, 2 h post-infusion, 4 h post-infusion, and 6 h post-infusion, as well as at about 24 h post-infusion, and 168 h post-infusion (Day 15).
For patients in Groups 8-10, blood samples were typically collected at Day 1 at pre-infusion (t=−1 h), during infusion at about 30 minutes (t=−0.5 h), immediately post infusion (t=0 h), 30 min post-infusion, 1 h post-infusion, 2 h post-infusion, 4 h post-infusion, and 6 h post-infusion, as well as at about 24 h post-infusion, 48 h post-infusion, and 72 h post-infusion. On Day 8, blood samples were typically collected at pre-infusion (t=−1 h). On Day 15, blood samples were typically collected at pre-infusion (t=−1 h), during infusion at about 30 minutes (t=−0.5 h), immediately post infusion (t=0 h), 30 min post-infusion, 1 h post-infusion, 2 h post-infusion, 4 h post-infusion, and 6 h post-infusion, as well as at about 24 h post-infusion, and 168 h post-infusion (Day 22).
Levels of Compound I in patient's plasma were analyzed by liquid chromatography tandem mass spectrometry (LC/MS/MS) assay. Experimental procedures of the validated methods are summarized below. The pharmacokinetic parameters after first dose and second dose for Groups 1-7 and after first dose and third dose for Groups 8-10 are shown in Tables 2A-2J. In Tables 2A-2J: SD=standard deviation; Cmax=maximum observed concentration; D=dose; Tmax=time to maximum observed concentration; T1/2=elimination half-life; Vd=volume of distribution; CL=drug clearance; and AUC∞=area under the concentration-time curve from time zero to infinity (total exposure).
The concentrations of Compound I in human plasma samples collected from subjects of as discussed above. Compound I concentrations in plasma samples were measured based on 9 levels of calibration standards from 5.00 to 5000 ng/mL, and 3 levels of QC at 15.0 ng/mL (low), 2500 ng/mL (mid), and 4000 ng/mL (high).
Two reference standard master stock solutions of Compound I were prepared by dissolving the Compound 1 reference standard with 50:50:0.1 ACN:diH2O:FA (v/v/v) and sonicating for 7 minutes (diH2O=deionized water). The resulting solutions were further diluted with 50:50:0.1 ACN:diH2O:FA (v/v/v) into a series of working stock solutions (WSS) for spiking of Compound I calibration standards and QC samples. The master stock solutions were prepared fresh on the day of assay, or stored at nominal 2° C. to 8° C. for later use. Master stock solutions were used within the stability timeframe. […]

[1] = Group 1, 50 mg/m^2 IV, Day 1, mean, n = 4
[2] = Group 1, 50 mg/m^2 IV, Day 8, mean, n = 3
[3] = Group 2, 100 mg/m^2 IV, Day 8, mean, n = 3
[4] = Group 3, 150 mg/m^2 IV, Day 1, mean, n = 4
[5] = Group 3, 150 mg/m^2 IV, Day 8, mean, n = 4
[6] = Group 4, 200 mg/m^2 IV, Day 1, mean, n = 4
[7] = Group 4, 200 mg/m^2 IV, Day 8, mean, n = 4
[8] = Group 5, 250 mg/m^2 IV, Day 1, mean, n = 3
[9] = Group 5, 250 mg/m^2 IV, Day 8, mean, n = 3
[10] = Group 6, 325 mg/m^2 IV, Day 1, mean, n = 3
[11] = Group 6, 325 mg/m^2 IV, Day 8, mean, n = 3
[12] = Group 7, 475 mg/m^2 IV, Day 1, mean, n = 3
[13] = Group 7, 475 mg/m^2 IV, Day 8, mean, n = 3
[14] = Group 9, 475 mg/m^2 IV, Day 1, mean, n = 5
[15] = Group 10, 650 mg/m^2 IV, Day 1, mean, n = 5
[16] = Group 10, 650 mg/m^2 IV, Day 15, mean, n = 5
[17] = intravenous, Groups 8-10, Day 1, range of group means
[18] = iv, 50 mg/m2, Group 1, 50 mg/m^2 IV, Day 1, mean, n = 4
[19] = iv, 50 mg/m2, Group 1, 50 mg/m^2 IV, Day 8, mean, n = 3
[20] = iv, 100 mg/m2, Group 2, 100 mg/m^2 IV, Day 1, mean, n = 4
[21] = iv, 100 mg/m2, Group 2, 100 mg/m^2 IV, Day 8, mean, n = 3
[22] = iv, 150 mg/m2, Group 3, 150 mg/m^2 IV, Day 1, mean, n = 4

Compound: Cc1cnc(CNC(=O)c2c(=O)c3ccc(N4CCCN(C)CC4)nc3n3c2sc2ccccc23)cn1 [Compound I, 2-(4-Methyl-[1,4]diazepan-1-yl)-5-oxo-5H-7-thia-1,11b-diaza-benzo[c]fluorene-6-carboxylic acid (5-methyl-pyrazin-2-ylmethyl)-amide]
- AUC∞/D [1]: 170 ng·h/mL/mg
- Cmax/D [1]: 8.14 ng/mL/mg
- AUC∞/D [2]: 94.9 ng·h/mL/mg
- Cmax/D [2]: 7.23 ng/mL/mg
- AUC∞/D (Group 2, 100 mg/m^2 IV, Day 1, mean, n = 3): 38.3 ng·h/mL/mg
- Cmax/D (Group 2, 100 mg/m^2 IV, Day 1, mean, n = 4): 5.94 ng/mL/mg
- AUC∞/D [3]: 47.4 ng·h/mL/mg
- Cmax/D [3]: 3.97 ng/mL/mg
- AUC∞/D [4]: 84.5 ng·h/mL/mg
- Cmax/D [4]: 5.43 ng/mL/mg
- AUC∞/D [5]: 91.1 ng·h/mL/mg
- Cmax/D [5]: 5.49 ng/mL/mg
- AUC∞/D [6]: 42.7 ng·h/mL/mg
- Cmax/D [6]: 26.9 ng/mL/mg
- AUC∞/D [7]: 44.5 ng·h/mL/mg
- Cmax/D [7]: 3.27 ng/mL/mg
- AUC∞/D [8]: 48.0 ng·h/mL/mg
- Cmax/D [8]: 3.15 ng/mL/mg
- AUC∞/D [9]: 64.6 ng·h/mL/mg
- Cmax/D [9]: 1.87 ng/mL/mg
- AUC∞/D [10]: 46.9 ng·h/mL/mg
- Cmax/D [10]: 2.14 ng/mL/mg
- AUC∞/D [11]: 57.8 ng·h/mL/mg
- Cmax/D [11]: 2.09 ng/mL/mg
- AUC∞/D [12]: 44.0 ng·h/mL/mg
- Cmax/D [12]: 2.48 ng/mL/mg
- AUC∞/D [13]: 44.1 ng·h/mL/mg
- Cmax/D [13]: 2.15 ng/mL/mg
- AUC∞/D (Group 8, 325 mg/m^2 IV, Day 1, mean, n = 3): 52.1 ng·h/mL/mg
- Cmax/D (Group 8, 325 mg/m^2 IV, Day 1, mean, n = 4): 2.04 ng/mL/mg
- Cmax/D (Group 8, 325 mg/m^2 IV, Day 15, mean, n = 4): 35.5 ng/mL/mg
- AUC∞/D [14]: 42.7 ng·h/mL/mg
- Cmax/D [14]: 2.01 ng/mL/mg
- AUC∞/D (Group 9, 475 mg/m^2 IV, Day 15, mean, n = 4): 39.8 ng·h/mL/mg
- Cmax/D (Group 9, 475 mg/m^2 IV, Day 15, mean, n = 5): 3.34 ng/mL/mg
- AUC∞/D [15]: 46.5 ng·h/mL/mg
- Cmax/D [15]: 2.61 ng/mL/mg
- AUC∞/D [16]: 48.6 ng·h/mL/mg
- Cmax/D [16]: 3.44 ng/mL/mg
- Plasma kinetic behavior (all dose levels, Groups 1-10): semi-logarithmic biphasic kinetic behavior
- Cmax (intravenous, 200 mg/m2, Groups 1-7, Day 1, range of group means (200 mg/m^2 outlier apart)): 728 to 1940 ng/mL
- Cmax (intravenous, 325 mg/m2, Groups 8-10, Day 15, range of group means (325 mg/m^2 outlier apart)): 2870 to 4170 ng/mL
- Tmax (intravenous, Groups 1-7, 50 to 475 mg/m^2, Day 1, range of group means): 0.508 to 1.19 h
- AUC(0-inf) (intravenous, Groups 1-7, Day 1, range of group means, read-out: Total exposures (AUC∞)): 6650 to 36200 ng·h/mL
- half-life (intravenous, Groups 1-7, Day 1 dose, range of group means, read-out: Apparent elimination half-lives): 37.3 to 81.8 h
- Cmax (intravenous, Groups 1-7, Day 8, range of group means): 642 to 1710 ng/mL
- AUC(0-inf) (intravenous, Groups 1-7, Day 8, range of group means, read-out: Total exposures (AUC∞)): 9120 to 35400 ng·h/mL
- half-life (intravenous, Groups 1-7, Day 8 dose, range of group means, read-out: Apparent elimination half-lives): 42.6 to 96.9 h
- Cmax [17]: 1140 to 3080 ng/mL
- Tmax [17]: 0.767 to 1.18 h
- AUC(0-inf) (intravenous, Groups 8-10, Day 1, range of group means, read-out: Total exposures (AUC∞)): 29100 to 57500 ng·h/mL
- half-life (intravenous, Groups 8-10, Day 1 dose, range of group means, read-out: Apparent elimination half-lives): 61.5 to 122 h
- AUC(0-inf) (intravenous, Groups 8-10, Day 15, range of group means, read-out: Total exposures (AUC∞)): 32500 to 62200 ng·h/mL
- half-life (intravenous, Groups 8-10, Day 15 dose, range of group means, read-out: Apparent elimination half-lives): 59 to 93.6 h
- Cmax [18]: 728 ng/mL
- Tmax [18]: 0.758 h
- Vd [18]: 866 L
- clearance [18]: 265 mL/min
- AUC(0-inf) (iv, 50 mg/m2, Group 1, 50 mg/m^2 IV, Day 1, mean, n = 4, read-out: AUC∞): 16300 ng·h/mL
- half-life (iv, 50 mg/m2, Group 1, 50 mg/m^2 IV, Day 1, mean, n = 4, read-out: T1/2 (converted)): 60.1 h
- Cmax [19]: 642 ng/mL
- Tmax [19]: 1.01 h
- Vd [19]: 752 L
- clearance [19]: 275 mL/min
- AUC(0-inf) (iv, 50 mg/m2, Group 1, 50 mg/m^2 IV, Day 8, mean, n = 3, read-out: AUC∞): 9120 ng·h/mL
- half-life (iv, 50 mg/m2, Group 1, 50 mg/m^2 IV, Day 8, mean, n = 3, read-out: T1/2 (converted)): 42.6 h
- Vd (iv, 100 mg/m2, Group 2, 100 mg/m^2 IV, Day 1, mean, n = 3): 1400 L
- AUC(0-inf) (iv, 100 mg/m2, Group 2, 100 mg/m^2 IV, Day 1, mean, n = 3, read-out: AUC∞): 6650 ng·h/mL
- half-life (iv, 100 mg/m2, Group 2, 100 mg/m^2 IV, Day 1, mean, n = 3, read-out: T1/2 (converted)): 37.3 h
- Cmax [20]: 1090 ng/mL
- Tmax [20]: 0.508 h
- Cmax [21]: 804 ng/mL
- Tmax [21]: 0.7 h
- Vd [21]: 1850 L
- AUC(0-inf) (iv, 100 mg/m2, Group 2, 100 mg/m^2 IV, Day 8, mean, n = 3, read-out: AUC∞): 9160 ng·h/mL
- half-life (iv, 100 mg/m2, Group 2, 100 mg/m^2 IV, Day 8, mean, n = 3, read-out: T1/2 (converted)): 60.4 h
- Cmax [22]: 1230 ng/mL
- Tmax [22]: 0.65 h
- Vd [22]: 900 L
- clearance [22]: 252 mL/min
- AUC(0-inf) (iv, 150 mg/m2, Group 3, 150 mg/m^2 IV, Day 1, mean, n = 4, read-out: AUC∞): 20000 ng·h/mL
- half-life (iv, 150 mg/m2, Group 3, 150 mg/m^2 IV, Day 1, mean, n = 4, read-out: T1/2 (converted)): 48.1 h
- Cmax (iv, 150 mg/m2, Group 3, 150 mg/m^2 IV, Day 8, mean, n = 4): 1270 ng/mL
